Entries after “also recorded” stand apart in the source; their conditions may differ. Each block holds one molecule with its values, some of them ahead of it. Ends that are not written are not given here.
How the values were obtained:
[1] = CyClick: N-terminal amine condenses with side-chain or C-terminal aldehyde (or ketone) to a cyclic imine, then the residue-2 amide N attacks to give a 4-imidazolidinone; DMAP (7 equiv); conditions: H2O/DMF 1:1, 5.0 mM, 25.0 °C
[2] = biological target: chymotrypsin (Bos taurus, UniProt P00766); assay: Enzymatic degradation study: proteolytic stability on incubation with chymotrypsin (HPLC, LCMS); assay type: in vitro ADME; conditions: for remaining at 5 min, 1.5 mM / remaining at 0.25 h, 1.5 mM / remaining at 0.5 h, 1.5 mM / remaining at 0.75 h, 1.5 mM / remaining at 1 h, 1.5 mM / remaining at 1.5 h, 1.5 mM / remaining at 2 h, 1.5 mM / remaining at 8 h, 1.5 mM: chymotrypsin (isolated protease) in Tris buffer, read-out: enzyme degradation studies, peptide at time point; for remaining at 5 min, 1.5 mM / remaining at 0.25 h, 1.5 mM / remaining at 0.5 h, 1.5 mM / remaining at 0.75 h, 1.5 mM / remaining at 1 h, 1.5 mM / remaining at 1.5 h, 1.5 mM / remaining at 2 h, 1.5 mM / remaining at 8 h, 1.5 mM / enzyme degradation studies, peptide at time point: chymotrypsin, 10 mM Tris buffer pH 7.5, peptide 1.5 mM; for remaining at 0.25 h, 1.5 mM: time 15 min; for remaining at 0.5 h, 1.5 mM: time 30 min; for remaining at 0.75 h, 1.5 mM: time 45 min; for remaining at 1 h, 1.5 mM: time 60 min; for remaining at 1.5 h, 1.5 mM: time 90 min; for remaining at 2 h, 1.5 mM: time 120 min; for remaining at 8 h, 1.5 mM: time 480 min; for enzyme degradation studies, peptide at time point: time 0 min
Method: FIG. 25, comprising FIG. 25A through FIG. 25C, depicts representative enzymatic Degradation Studies. Linear peptide AVGPFEY (SEQ ID NO: 13) and cyclic peptide cyc(AVGPFEY) (SEQ ID NO: 13) 2a were individually dissolved in 10 mM Tris buffer pH 7.5 (final conc. 1.5 mM). A chymotrypsin stock solution was created by the addition of 1 mg chymotrypsin in 100 μL CaCl2 (0.01 M), 100 μL tris buffer (0.1 M pH 7.5), 100 μL HCl (1 mM). 10 μL of the chymotrypsin stock solution was added to both linear peptide AVGPFEY (SEQ ID NO: 13) and cyclic peptide cyc(AVGPFEY) (SEQ ID NO: 13) 2a solutions. Samples (100 μL) were taken after regular intervals of time from both linear and cyclic peptide solutions. 100 μL of each sample was quenched with 400 μL of frozen water and solutions were frozen at −80° C. at the following time intervals: 0 min, 5 min, 15 min, 30 min, 45 min, 60 min, 90 min, 120 min, and 480 min. Each sample was lyophilized and analyzed using HPLC and LCMS. FIG. 25A depicts a schematic representation of the enzyme degradation of cyclic peptide cyc(AVGPFEY) (SEQ ID NO: 13) 2a. FIG. 25B depicts a schematic representation of the enzyme degradation of linear peptide 1a. FIG. 25C depicts representative HPLC data of various time aliquots of the enzyme degradation of linear peptide 1a.
To evaluate the potential of 4-imidazolidinone cyclic peptides for biological applications, the proteolytic stability of a cyclic peptide cyc(AVGPFEY) (SEQ ID NO: 13) 2a in comparison with its linear counterpart AVGPFEY (SEQ ID NO: 13) was examiner. Linear peptide AVGPFEY ID NO: 13) and cyclic peptide cyc(AVGPFEY) (SEQ ID NO: 13) 2a were incubated with chymotrypsin, which hydrolyzes peptide bonds at the C-terminal side of aromatic residues, such as Phe.

[3] = as above; assay type: in vitro ADME; conditions: chymotrypsin (isolated protease) in Tris buffer, pH 7.5; up to 24 h; HPLC and MS analysis; read-out: cleavage observed in the presence of chymotrypsin
[4] = Stability of 4-imidazolidinone cyclic peptide under different pH conditions (hydrolysis/degradation, HPLC); assay type: physicochemical; conditions: 10 mM phosphate buffer, pH 3.5, 5.5, 7.5, 8.5, 10.5, room temperature, up to 24 h
Method: FIG. 22, comprising FIG. 22A through FIG. 22D, depicts representative effects of 4-imidazolidinone in cyclic peptides. FIG. 22A depicts representative VT-NMR spectra of head-to-tail 4-imidazolidinone cyclic peptide 4a in aqueous solutions. FIG. 22B depicts representative turn structure of 4-imidazolidinone cyclic peptide 4a obtained by running ForceGen (Jain A N et al., 2019, J. Comput.-Aided Mol. Des., 33:531) with NMR constraints. […] Cyclic peptide cyc(NVGPFEY) (SEQ ID NO: 19) 2f (2.5 mg) was dissolved in H2O to form a stock solution (500 μL, conc. 7 mM). 100 μL of the stock was added to 400 μL of sodium phosphate buffer (10 mM) at the following pH values: 3.5, 5.5, 7.5, 8.5, 10.5 (total conc. 1.4 mM). The reactions were shaken at room temperature. Samples were analyzed by injecting them in HPLC after regular intervals of time. […] FIG. 22D depicts representative proteolytic stability of 4-imidazolidinone cyclic peptide 2a as compared to its linear counterpart.
The stability of cyclic peptides is a major concern, for pharmaceutical applications. To evaluate the stability of a 4-imidazolidinone cyclic peptide, cyclic peptide cyc(NVGPFEY) (SEQ ID NO: 19) 2f was incubated under different pH conditions.

Molecule: C[C@@H]1NC(=O)[C@@H]2CCCN2C(=O)CN2C(=O)[C@H](Cc3ccccc3)NC12 (stereo partly drawn) [H-Phe-Gly-Pro-Ala-H (C-terminal aldehyde)]
ring closure, conversion by HPLC ([1]; from C[C@@H](C=O)NC(=O)[C@@H]1CCCN1C(=O)CNC(=O)[C@@H](N)Cc1ccccc1, 9-membered ring, 24.0 h): 0%

remaining at 5 min, 1.5 mM [2]: 100% | remaining at 0.25 h, 1.5 mM [2]: 100% | remaining at 0.5 h, 1.5 mM [2]: 100% | remaining at 0.75 h, 1.5 mM [2]: 100% | remaining at 1 h, 1.5 mM [2]: 100% | remaining at 1.5 h, 1.5 mM [2]: 100% | remaining at 2 h, 1.5 mM [2]: 100% | remaining at 8 h, 1.5 mM [2]: 91.9% | enzyme degradation studies, peptide at time point [2]: 100% | metabolised at 24 h, 1.5 mM [3]: 20%
Molecule: CC(C)[C@H]1C(=O)NCC(=O)N2CCC[C@H]2C(=O)N[C@@H](Cc2ccccc2)C(=O)N[C@H](C(=O)N[C@@H](Cc2ccc(O)cc2)C(N)=O)CCC(=O)NC[C@@H]2N[C@@H](C)C(=O)N21 [2a, cyc(Ala-Val-Gly-Pro-Phe-Glu)Tyr]

Molecule: CC(C)[C@H]1C(=O)NCC(=O)N2CCC[C@H]2C(=O)N[C@@H](Cc2ccccc2)C(=O)N[C@H](C(=O)N[C@@H](Cc2ccc(O)cc2)C(N)=O)CCC(=O)NCC2N[C@@H](CC(N)=O)C(=O)N21 (stereo partly drawn) [H-Asn-Val-Gly-Pro-Phe-Glu(NH-CH2-CHO)-Tyr-NH2]
ring closure, conversion by HPLC ([1]; from CC(C)[C@H](NC(=O)[C@@H](N)CC(N)=O)C(=O)NCC(=O)N1CCC[C@H]1C(=O)N[C@@H](Cc1ccccc1)C(=O)N[C@@H](CCC(=O)NCC=O)C(=O)N[C@@H](Cc1ccc(O)cc1)C(N)=O, 20-membered ring, 16.0 h): 85%

Molecule: CC(C)[C@H]1C(=O)NCC(=O)N2CCC[C@H]2C(=O)N[C@@H](Cc2ccccc2)C(=O)N[C@H](C(=O)N[C@@H](Cc2ccc(O)cc2)C(N)=O)CCCCNC(=O)CCC2(C)N[C@@H](C)C(=O)N12 (stereo partly drawn) [H-Ala-Val-Gly-Pro-Phe-Lys(levulinoyl)-Tyr-NH2]
ring closure, conversion by HPLC ([1]; from CC(=O)CCC(=O)NCCCC[C@H](NC(=O)[C@H](Cc1ccccc1)NC(=O)[C@@H]1CCCN1C(=O)CNC(=O)[C@@H](NC(=O)[C@H](C)N)C(C)C)C(=O)N[C@@H](Cc1ccc(O)cc1)C(N)=O, 23-membered ring): 36%

Molecule: NCCCC[C@H](NC(=O)[C@@H]1CCC(=O)NCC2N[C@@H](CC(N)=O)C(=O)N2[C@@H](Cc2ccccc2)C(=O)N2CCC[C@H]2C(=O)N[C@@H](Cc2ccccc2)C(=O)N1)C(N)=O (stereo partly drawn) [H-Asn-Phe-Pro-Phe-Glu(NH-CH2-CHO)-Lys-NH2]
ring closure, conversion by HPLC ([1]; from NCCCC[C@H](NC(=O)[C@H](CCC(=O)NCC=O)NC(=O)[C@H](Cc1ccccc1)NC(=O)[C@@H]1CCCN1C(=O)[C@H](Cc1ccccc1)NC(=O)[C@@H](N)CC(N)=O)C(N)=O, 17-membered ring): 70%

Molecule: CC(C)[C@H]1C(=O)NCC(=O)N2CCC[C@H]2C(=O)N[C@@H](Cc2ccccc2)C(=O)N[C@H](C(=O)N[C@@H](Cc2ccc(O)cc2)C(N)=O)CCC(=O)NCC2N[C@@H](CCCCN)C(=O)N21 (stereo partly drawn) [H-Lys-Val-Gly-Pro-Phe-Glu(NH-CH2-CHO)-Tyr-NH2]
ring closure, conversion by HPLC ([1]; from CC(C)[C@H](NC(=O)[C@@H](N)CCCCN)C(=O)NCC(=O)N1CCC[C@H]1C(=O)N[C@@H](Cc1ccccc1)C(=O)N[C@@H](CCC(=O)NCC=O)C(=O)N[C@@H](Cc1ccc(O)cc1)C(N)=O, 20-membered ring): 84%

time until fully consumed in the presence of chymotrypsin ([2]; HPLC and MS analysis): 90 min | remaining at 5 min, 1.5 mM [2]: 82.9% | remaining at 0.25 h, 1.5 mM [2]: 66.3% | remaining at 0.5 h, 1.5 mM [2]: 38.6% | remaining at 0.75 h, 1.5 mM [2]: 20.2% | remaining at 1 h, 1.5 mM [2]: 10.9% | remaining at 1.5 h, 1.5 mM [2]: 7.7% | remaining at 2 h, 1.5 mM [2]: 0% | remaining at 8 h, 1.5 mM [2]: 0% | half-life at 1.5 mM ([2]; chymotrypsin in Tris buffer, pH 7.5, HPLC and MS analysis, read-out: half-life in the presence of chymotrypsin): 20 min | enzyme degradation studies, peptide at time point [2]: 100%
Molecule: AVGPFEY-NH2 [AVGPFEY]

Molecule: CC(C)[C@H]1C(=O)NCC(=O)N2CCC[C@H]2C(=O)N[C@@H](Cc2ccccc2)C(=O)N[C@H](C(=O)N[C@@H](Cc2ccc(O)cc2)C(N)=O)CCC(=O)NCC2N[C@@H](CO)C(=O)N21 (stereo partly drawn) [H-Ser-Val-Gly-Pro-Phe-Glu(NH-CH2-CHO)-Tyr-NH2]
ring closure, conversion by HPLC ([1]; from CC(C)[C@H](NC(=O)[C@@H](N)CO)C(=O)NCC(=O)N1CCC[C@H]1C(=O)N[C@@H](Cc1ccccc1)C(=O)N[C@@H](CCC(=O)NCC=O)C(=O)N[C@@H](Cc1ccc(O)cc1)C(N)=O, 20-membered ring): 100%

Molecule: C[C@@H]1N=CCNC(=O)CC[C@@H](C(=O)N[C@@H](Cc2ccc(O)cc2)C(N)=O)NC(=O)[C@H](Cc2ccccc2)NC(=O)[C@H](C)NC(=O)CNC(=O)[C@@H]2CCCN2C1=O [H-Ala-Pro-Gly-Ala-Phe-Glu(NH-CH2-CHO)-Tyr-NH2]
ring closure, conversion by HPLC ([1]; from C[C@H](N)C(=O)N1CCC[C@H]1C(=O)NCC(=O)N[C@@H](C)C(=O)N[C@@H](Cc1ccccc1)C(=O)N[C@@H](CCC(=O)NCC=O)C(=O)N[C@@H](Cc1ccc(O)cc1)C(N)=O, 20-membered ring): 0%

Molecule: C[C@@H]1NC2[C@H](C)NC(=O)[C@@H]3CCCN3C(=O)CNC(=O)[C@H](Cc3ccccc3)N2C1=O (stereo partly drawn) [H-Ala-Phe-Gly-Pro-Ala-H (C-terminal aldehyde)]
ring closure, conversion by HPLC ([1]; from C[C@H](N)C(=O)N[C@@H](Cc1ccccc1)C(=O)NCC(=O)N1CCC[C@H]1C(=O)N[C@@H](C)C=O, 12-membered ring): 71%

Molecule: CC(C)[C@H]1C(=O)NCC(=O)N2CCC[C@H]2C(=O)N[C@@H](Cc2ccccc2)C(=O)N[C@H](C(=O)N[C@@H](Cc2ccc(O)cc2)C(N)=O)CCC(=O)NCC2N[C@@H](C)C(=O)N21 (stereo partly drawn) [H-Ala-Val-Gly-Pro-Phe-Glu(NH-CH2-CHO)-Tyr-NH2]
ring closure, conversion by HPLC ([1]; from CC(C)[C@H](NC(=O)[C@H](C)N)C(=O)NCC(=O)N1CCC[C@H]1C(=O)N[C@@H](Cc1ccccc1)C(=O)N[C@@H](CCC(=O)NCC=O)C(=O)N[C@@H](Cc1ccc(O)cc1)C(N)=O, 20-membered ring, 8.0 h): 99%

Molecule: cyc(Asn-Val-Gly-Pro-Phe-Glu)-Tyr (NVGPFEY; not fully specified (residue 6, bridges); printed as cyc(Asn-Val-Gly-Pro-Phe-Glu)-Tyr; also: Glu side-chain aldehyde, bridge at N, other end not in the chain) [2f]
resistance to hydrolysis/degradation under different pH conditions [4]: remained unchanged; also recorded: No degradation
